Legend:
Assay in all cases: KINOMEscan
Assay type in all cases: binding
Conditions in all cases: read-out: percent of control
[1] = biological target: ABL1(Q252H)-nonphosphorylated (Homo sapiens (Human), UniProt P00519, Q252H)
Method: (§1) In vitro profiling of Compound I-2 (1 μM) was performed using the DiscoveRx KINOMEscan® platform.

[2] = biological target: ABL1(T315I)-phosphorylated (Homo sapiens (Human), UniProt P00519, T315I)
Method: as §1

ACVR2A = ACVR2A (Homo sapiens (Human), UniProt P27037)
Method: as §1

CDK4-cyclinD3 = CDK4-cyclinD3 (Homo sapiens (Human), UniProt P11802)
Method: as §1

CDKL2 = CDKL2 (Homo sapiens (Human), UniProt Q92772)
Method: as §1

CLK3 = CLK3 (Homo sapiens (Human), UniProt P49761)
Method: as §1

CSNK1E = CSNK1E (Homo sapiens (Human), UniProt P49674)
Method: as §1

EGFR(G719S) = EGFR(G719S) (Homo sapiens (Human), UniProt P00533, G719S)
Method: as §1

EPHA3 = EPHA3 (Homo sapiens (Human), UniProt P29320)
Method: as §1

EPHB6 = EPHB6 (Homo sapiens (Human), UniProt O15197)
Method: as §1

FLT3 (N841I) = FLT3 (N841I) (Homo sapiens (Human), UniProt P36888, N841I)
Method: as §1

GCN2(Kin.Dom.2,S808G) = GCN2(Kin.Dom.2,S808G) (Homo sapiens (Human), UniProt Q9P2K8, S808G)
Method: as §1

GRK2 = GRK2 (Homo sapiens (Human), UniProt P25098)
Sequence of GRK2 (P25098 whole entry): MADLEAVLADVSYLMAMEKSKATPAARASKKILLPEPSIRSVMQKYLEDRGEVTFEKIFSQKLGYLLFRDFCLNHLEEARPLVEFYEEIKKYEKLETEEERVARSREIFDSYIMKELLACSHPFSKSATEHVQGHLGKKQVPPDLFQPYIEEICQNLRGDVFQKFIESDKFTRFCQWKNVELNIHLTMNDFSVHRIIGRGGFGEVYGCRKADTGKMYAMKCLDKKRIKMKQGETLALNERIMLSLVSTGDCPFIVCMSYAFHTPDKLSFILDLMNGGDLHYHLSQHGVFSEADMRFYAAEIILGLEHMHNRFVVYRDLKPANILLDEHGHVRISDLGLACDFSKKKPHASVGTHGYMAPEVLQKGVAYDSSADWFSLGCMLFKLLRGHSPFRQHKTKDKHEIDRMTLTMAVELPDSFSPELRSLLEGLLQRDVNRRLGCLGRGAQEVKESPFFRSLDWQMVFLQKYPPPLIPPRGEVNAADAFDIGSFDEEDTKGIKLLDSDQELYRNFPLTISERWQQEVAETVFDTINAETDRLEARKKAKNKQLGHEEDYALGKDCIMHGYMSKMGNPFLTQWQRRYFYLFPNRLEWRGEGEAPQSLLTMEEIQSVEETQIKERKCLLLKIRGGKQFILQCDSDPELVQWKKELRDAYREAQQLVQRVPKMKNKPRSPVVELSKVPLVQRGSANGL
Method: as §1

HASPIN = HASPIN (Homo sapiens (Human), UniProt Q8TF76)
Sequence of HASPIN (Q8TF76 whole entry): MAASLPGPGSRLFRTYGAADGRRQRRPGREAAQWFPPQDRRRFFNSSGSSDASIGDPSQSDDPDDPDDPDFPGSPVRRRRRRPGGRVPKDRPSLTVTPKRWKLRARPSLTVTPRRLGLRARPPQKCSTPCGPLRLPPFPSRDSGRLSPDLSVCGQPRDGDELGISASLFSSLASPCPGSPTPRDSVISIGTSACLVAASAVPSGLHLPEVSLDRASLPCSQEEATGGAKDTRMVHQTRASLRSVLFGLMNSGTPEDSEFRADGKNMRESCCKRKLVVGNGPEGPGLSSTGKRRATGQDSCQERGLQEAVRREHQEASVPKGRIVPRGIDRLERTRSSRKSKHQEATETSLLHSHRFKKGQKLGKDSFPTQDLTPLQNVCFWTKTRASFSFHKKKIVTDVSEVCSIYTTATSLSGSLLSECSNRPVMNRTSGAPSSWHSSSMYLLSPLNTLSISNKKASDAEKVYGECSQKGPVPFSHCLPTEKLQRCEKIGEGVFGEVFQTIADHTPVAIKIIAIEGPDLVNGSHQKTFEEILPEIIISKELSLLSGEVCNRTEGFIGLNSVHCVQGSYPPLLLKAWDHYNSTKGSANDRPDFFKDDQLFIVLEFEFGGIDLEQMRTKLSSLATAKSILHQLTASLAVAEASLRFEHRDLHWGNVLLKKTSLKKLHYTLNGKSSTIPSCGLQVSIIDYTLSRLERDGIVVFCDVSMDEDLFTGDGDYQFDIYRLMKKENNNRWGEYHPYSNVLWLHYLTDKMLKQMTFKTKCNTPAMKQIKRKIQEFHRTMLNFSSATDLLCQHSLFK
Method: as §1

IGF1R = IGF1R (Homo sapiens (Human), UniProt P08069)
Method: as §1

[3] = biological target: JAK1 (JH1domain-catalytic) (Homo sapiens (Human), UniProt P23458)
Method: as §1

MAP4K3 = MAP4K3 (Homo sapiens (Human), UniProt Q8IVH8)
Method: as §1

MET(Y1235D) = MET(Y1235D) (Homo sapiens (Human), UniProt P08581, Y1235D)
Method: as §1

MKNK2 = MKNK2 (Homo sapiens (Human), UniProt Q9HBH9)
Sequence of MKNK2 (Q9HBH9 whole entry): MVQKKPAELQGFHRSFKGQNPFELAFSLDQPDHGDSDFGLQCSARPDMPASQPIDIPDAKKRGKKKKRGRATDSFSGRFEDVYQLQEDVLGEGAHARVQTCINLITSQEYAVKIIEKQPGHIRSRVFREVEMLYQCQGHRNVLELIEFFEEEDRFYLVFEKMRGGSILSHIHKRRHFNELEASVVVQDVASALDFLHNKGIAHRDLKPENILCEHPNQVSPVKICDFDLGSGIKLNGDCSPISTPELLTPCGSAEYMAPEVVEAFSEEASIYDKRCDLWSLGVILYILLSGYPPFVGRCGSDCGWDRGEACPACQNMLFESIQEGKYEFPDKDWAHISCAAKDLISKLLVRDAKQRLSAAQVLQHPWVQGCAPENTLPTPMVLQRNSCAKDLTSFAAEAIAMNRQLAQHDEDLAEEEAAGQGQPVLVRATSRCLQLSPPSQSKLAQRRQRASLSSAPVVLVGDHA
Method: as §1

MLCK = MLCK (Homo sapiens (Human), UniProt Q32MK0)
Sequence of MLCK (Q32MK0 whole entry): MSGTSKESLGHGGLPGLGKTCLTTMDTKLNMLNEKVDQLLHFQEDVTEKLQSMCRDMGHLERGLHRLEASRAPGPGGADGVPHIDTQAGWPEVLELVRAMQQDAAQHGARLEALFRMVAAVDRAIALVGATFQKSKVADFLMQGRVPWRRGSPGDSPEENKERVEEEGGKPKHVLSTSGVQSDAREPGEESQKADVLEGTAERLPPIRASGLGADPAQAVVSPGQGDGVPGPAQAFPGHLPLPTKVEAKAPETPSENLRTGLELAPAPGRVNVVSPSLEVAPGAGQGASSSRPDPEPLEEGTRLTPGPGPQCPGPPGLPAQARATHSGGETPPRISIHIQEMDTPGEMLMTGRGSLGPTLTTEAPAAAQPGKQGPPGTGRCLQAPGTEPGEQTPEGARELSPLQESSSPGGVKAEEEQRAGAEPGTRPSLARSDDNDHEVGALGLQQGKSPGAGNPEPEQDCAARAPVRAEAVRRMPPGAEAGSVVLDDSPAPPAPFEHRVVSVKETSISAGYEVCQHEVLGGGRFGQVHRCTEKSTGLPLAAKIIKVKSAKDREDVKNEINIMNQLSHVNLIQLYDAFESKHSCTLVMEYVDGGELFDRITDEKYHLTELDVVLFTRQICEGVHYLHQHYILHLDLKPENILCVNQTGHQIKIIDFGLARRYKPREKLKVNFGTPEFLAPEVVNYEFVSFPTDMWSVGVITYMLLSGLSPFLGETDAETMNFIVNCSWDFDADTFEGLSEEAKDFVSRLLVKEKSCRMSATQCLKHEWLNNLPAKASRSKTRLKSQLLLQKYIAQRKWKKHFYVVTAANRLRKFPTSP
Method: as §1

NEK10 = NEK10 (Homo sapiens (Human), UniProt Q6ZWH5)
Method: as §1

NEK11 = NEK11 (Homo sapiens (Human), UniProt Q8NG66)
Method: as §1

PAK4 = PAK4 (Homo sapiens (Human), UniProt O96013)
Method: as §1

PCTK1 = PCTK1 (Homo sapiens (Human), UniProt Q00536)
Method: as §1

PIK3CA(1800L) = PIK3CA(1800L) (Homo sapiens (Human), UniProt P42336, I800L)
Sequence of PIK3CA(1800L) (P42336 whole entry I800L): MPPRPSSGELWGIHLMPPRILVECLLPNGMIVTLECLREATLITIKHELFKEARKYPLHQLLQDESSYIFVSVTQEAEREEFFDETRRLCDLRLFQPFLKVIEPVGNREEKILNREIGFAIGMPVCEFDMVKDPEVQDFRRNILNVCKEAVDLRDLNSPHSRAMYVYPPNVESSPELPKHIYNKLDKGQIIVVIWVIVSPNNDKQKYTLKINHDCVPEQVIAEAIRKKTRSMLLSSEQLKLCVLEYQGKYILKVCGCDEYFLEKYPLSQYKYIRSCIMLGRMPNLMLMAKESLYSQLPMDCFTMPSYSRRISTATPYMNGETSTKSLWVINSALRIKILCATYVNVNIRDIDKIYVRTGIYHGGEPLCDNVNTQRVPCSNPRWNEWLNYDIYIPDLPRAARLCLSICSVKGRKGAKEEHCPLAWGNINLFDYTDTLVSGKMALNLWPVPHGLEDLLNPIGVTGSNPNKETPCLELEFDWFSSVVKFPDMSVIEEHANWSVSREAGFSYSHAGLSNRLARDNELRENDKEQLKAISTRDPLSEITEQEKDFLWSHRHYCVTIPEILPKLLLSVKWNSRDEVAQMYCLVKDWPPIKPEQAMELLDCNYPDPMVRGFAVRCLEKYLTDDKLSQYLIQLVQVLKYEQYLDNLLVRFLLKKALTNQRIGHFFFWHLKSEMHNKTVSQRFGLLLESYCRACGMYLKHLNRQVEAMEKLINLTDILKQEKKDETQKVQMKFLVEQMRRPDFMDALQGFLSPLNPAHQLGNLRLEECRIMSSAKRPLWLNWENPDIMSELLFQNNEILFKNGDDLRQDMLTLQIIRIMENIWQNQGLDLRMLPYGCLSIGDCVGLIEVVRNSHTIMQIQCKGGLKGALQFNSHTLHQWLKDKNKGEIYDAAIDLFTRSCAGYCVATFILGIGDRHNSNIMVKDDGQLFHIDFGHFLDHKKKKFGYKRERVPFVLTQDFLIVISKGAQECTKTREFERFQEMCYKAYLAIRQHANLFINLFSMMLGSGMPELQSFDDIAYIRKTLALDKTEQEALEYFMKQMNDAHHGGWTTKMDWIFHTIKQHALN
Method: as §1

PIM3 = PIM3 (Homo sapiens (Human), UniProt Q86V86)
Method: as §1

PKAC-beta = PKAC-beta (Homo sapiens (Human), UniProt P22694)
Method: as §1

PLK1 = PLK1 (Homo sapiens (Human), UniProt P53350)
Method: as §1

[4] = biological target: RSK4 (Kin.Dom.1-N-terminal) (Homo sapiens (Human), UniProt Q9UK32)
Method: as §1

SIK = SIK (Homo sapiens (Human), UniProt P57059)
Method: as §1

STK16 = STK16 (Homo sapiens (Human), UniProt O75716)
Method: as §1

STK36 = STK36 (Homo sapiens (Human), UniProt Q9NRP7)
Method: as §1

TBK1 = TBK1 (Homo sapiens (Human), UniProt Q9UHD2)
Sequence of TBK1 (Q9UHD2 whole entry): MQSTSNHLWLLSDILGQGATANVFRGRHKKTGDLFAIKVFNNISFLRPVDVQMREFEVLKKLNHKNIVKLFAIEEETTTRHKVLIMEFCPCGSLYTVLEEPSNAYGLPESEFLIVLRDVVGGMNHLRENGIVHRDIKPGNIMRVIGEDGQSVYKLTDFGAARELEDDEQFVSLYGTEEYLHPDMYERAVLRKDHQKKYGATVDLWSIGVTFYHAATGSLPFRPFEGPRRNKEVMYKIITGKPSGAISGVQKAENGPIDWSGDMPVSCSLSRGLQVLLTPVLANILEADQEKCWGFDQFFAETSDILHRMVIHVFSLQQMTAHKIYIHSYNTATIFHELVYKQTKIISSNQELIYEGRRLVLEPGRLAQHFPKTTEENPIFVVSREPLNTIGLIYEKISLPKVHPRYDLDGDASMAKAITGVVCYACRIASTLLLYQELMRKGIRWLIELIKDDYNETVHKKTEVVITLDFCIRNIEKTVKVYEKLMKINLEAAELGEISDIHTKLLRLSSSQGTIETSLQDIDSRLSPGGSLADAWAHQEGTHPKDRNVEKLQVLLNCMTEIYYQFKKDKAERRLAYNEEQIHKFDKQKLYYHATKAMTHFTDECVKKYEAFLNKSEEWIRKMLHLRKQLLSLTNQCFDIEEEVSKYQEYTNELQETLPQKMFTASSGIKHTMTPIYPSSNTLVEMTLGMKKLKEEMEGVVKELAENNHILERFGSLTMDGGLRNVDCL
Method: as §1

TLK2 = TLK2 (Homo sapiens (Human), UniProt Q86UE8)
Method: as §1

TTK = TTK (Homo sapiens (Human), UniProt P33981)
Method: as §1

VRK2 = VRK2 (Homo sapiens (Human), UniProt Q86Y07)
Method: as §1

WEE2 = WEE2 (Homo sapiens (Human), UniProt P0C1S8)
Method: as §1

p38-delta = p38-delta (Homo sapiens (Human), UniProt O15264)
Method: as §1

Row | Compound | remaining binding at 1 µM [1] | remaining binding at 1 µM [2] | remaining binding at 1 µM (ACVR2A) | remaining binding at 1 µM (CDK4-cyclinD3) | remaining binding at 1 µM (CDKL2) | remaining binding at 1 µM (CLK3) | remaining binding at 1 µM (CSNK1E) | remaining binding at 1 µM (EGFR(G719S)) | remaining binding at 1 µM (EPHA3) | remaining binding at 1 µM (EPHB6) | remaining binding at 1 µM (FLT3 (N841I)) | remaining binding at 1 µM (GCN2(Kin.Dom.2,S808G)) | remaining binding at 1 µM (GRK2) | remaining binding at 1 µM (HASPIN) | remaining binding at 1 µM (IGF1R) | remaining binding at 1 µM [3] | remaining binding at 1 µM (MAP4K3) | remaining binding at 1 µM (MET(Y1235D)) | remaining binding at 1 µM (MKNK2) | remaining binding at 1 µM (MLCK) | other results
1 | CCN1CCN(Cc2cc(NC(=O)c3ccc(C)c(-c4ccc5nc(NC(=O)C6CC6)cn5n4)c3)cc(C(F)(F)F)c2)CC1 [Compound I-2, 3-(2-(cyclopropanecarboxamido)imidazo[1,2-b]pyridazin-6-yl)-N-(3-((4-ethylpiperazin-1-yl)methyl)-5-(trifluoromethyl)phenyl)-4-methylbenzamide] | 0% | 1.4% | 63% | 41% | 0% | 79% | 86% | 45% | 41% | 78% | 0% | 82% | 94% | 87% | 0.7% | 19% | 3.4% | 8.7% | 87% | 93% | remaining binding at 1 µM (NEK10): 75%; remaining binding at 1 µM (NEK11): 65%; remaining binding at 1 µM (PAK4): 96%; remaining binding at 1 µM (PCTK1): 16%; remaining binding at 1 µM (PIK3CA(1800L)): 100%; remaining binding at 1 µM (PIM3): 90%; remaining binding at 1 µM (PKAC-beta): 92%; remaining binding at 1 µM (PLK1): 98%; remaining binding at 1 µM [4]: 93%; remaining binding at 1 µM (SIK): 100%; remaining binding at 1 µM (STK16): 90%; remaining binding at 1 µM (STK36): 66%; remaining binding at 1 µM (TBK1): 75%; remaining binding at 1 µM (TLK2): 100%; remaining binding at 1 µM (TTK): 83%; remaining binding at 1 µM (VRK2): 88%; remaining binding at 1 µM (WEE2): 100%; remaining binding at 1 µM (p38-delta): 41%
2 | CCN1CCN(Cc2cc(NC(=O)c3ccc(C)c(-c4ccc5nc(NC(=O)C6CC6)cn5c4)c3)cc(C(F)(F)F)c2)CC1 [Compound I-6, 3-(2-(cyclopropanecarboxamido)imidazo[1,2-a]pyridin-6-yl)-N-(3-((4-ethylpiperazin-1-yl)methyl)-5-(trifluoromethyl)phenyl)-4-methylbenzamide] | 0.15% | 2.2% | 100% | 64% | 0.8% | 84% | 93% | 35% | 34% | 64% | 0% | 97% | 63% | 64% | 11% | 20% | 19% | 8.9% | 82% | 85% | remaining binding at 1 µM (NEK10): 62%; remaining binding at 1 µM (NEK11): 89%; remaining binding at 1 µM (PAK4): 96%; remaining binding at 1 µM (PCTK1): 28%; remaining binding at 1 µM (PIK3CA(1800L)): 91%; remaining binding at 1 µM (PIM3): 89%; remaining binding at 1 µM (PKAC-beta): 78%; remaining binding at 1 µM (PLK1): 100%; remaining binding at 1 µM [4]: 87%; remaining binding at 1 µM (SIK): 100%; remaining binding at 1 µM (STK16): 95%; remaining binding at 1 µM (STK36): 100%; remaining binding at 1 µM (TBK1): 96%; remaining binding at 1 µM (TLK2): 98%; remaining binding at 1 µM (TTK): 83%; remaining binding at 1 µM (VRK2): 92%; remaining binding at 1 µM (WEE2): 95%; remaining binding at 1 µM (p38-delta): 32%

— US20230391768A2, “IMIDAZOPYRIDINE DERIVATIVES AND AZA-IMIDAZOPYRIDINE DERIVATIVES AS JANUS KINASE 2 INHIBITORS AND USES THEREOF” (Dana-Farber Cancer Institute, Inc., priority 2018, published 2023)
